This is an account of results in US20240398806A1, “Compositions For and Methods of Treating and/or Preventing Pain” (Duke University, priority 2021, published 2024).

One data set relates to NMDAR. The data set is classed as cell-based. To be noted: Arrb2-KO mice; NMDA 50 mM as printed. The method, then: In FIG. 9B-FIG. 9D. *p<0.05 as determined by a two-way or one-way ANOVA.
Spinal cord NMDAR plays a critical role in driving inflammatory and neuropathic pain (Woolf C J, et al. (2000) Science. 288(5472):1765-1769). Using spinal cord slice preparations, NMDA (50 mM) induced inward currents in spinal cord out lamina II (IIo) neurons were recorded in WT and Arrb2-KO mice. […] Similarly, duration of intrathecal (i.t.) NMDA-induced spontaneous pain was also potentiated in the KO mice (FIG. 9C).

The nature of data set [1]: Pharmacokinetics in monkey (IV and PO). The data set is classed as in vivo. The settings on record: for AUC: monkey; for MRT last: read-out: MRT0-last.
Data set [2] concerns the target T1, NTSR1 (Homo sapiens, UniProt P30989). As to the kind of experiment: Cellular assay of β-arrestin-2 translocation in cells expressing NTSR1. The data set is classed as cell-based. The arrangement: expressed in transfected cells; host or cells: HEK293T cell membranes. The procedure:
(§1) First, using cellular assays, whether IND candidates such as SBI-810 are similar or better than SBI-553 as β-arrestin biased agonist at NTSR1. is assessed. The chemical entities used in this work were synthesized and validated. However, routine validation of the profile of these compounds is performed routinely using both cellular and in vivo assays. For example, HEK293 cells that express either the NTSR1 or NTSR2 are used to assess the functional profile of the various chemical probes. In addition, a series of genetically engineered mouse lines are used to provide an in vivo validation of novel chemical entities for their abilities to module behaviors in these animals.
(§2) Fourth, cellular assays are used to establish that IND ready analogs like SBI-810 are still selective for the NTSR1 rather than NTSR2. The specificity of the lead compounds toward NTSR1. NTSR2. and β-arrestin-2 are tested in respective cellular assays. More specifically, cells expressing either NTSR1 or NTSR2 are used to assess the function of various compound. […] This translocation is not observed in cells expressing NTSR2.
(§3) Fourth, genetically engineered mice are used to assess the effects and mechanisms of novel ligands. The specificity of the lead compounds toward NTSR1, NTSR2, and β-arrestin-2 dependent signaling is examined. […]

The nature of data set [3]: Pain models with systemic (IP or oral) administration. The data set is classed as in vivo, mice and rats.
The target of another data set is T2, NTSR2 (Homo sapiens, UniProt O95665).
T2 construct: expressed in transfected cells; host or cells: HEK293 cells
As to the kind of experiment: Cellular assay of β-arrestin-2 translocation in cells expressing NTSR2. The format is cell-based. The procedure:
as §1, §2, §3

Data set [4] has as its target T1, NTSR1. As to the kind of experiment: [3H]SBI-553 saturation binding to NTSR1-containing HEK293T cell membranes. The arrangement: expressed in transfected cells; host or cells: HEK293T cell membranes. The settings on record: by the named competitor.
The test system of a further data set is lamina IIo neurons. The arrangement: dose or concentration left out as unconfirmed. To be noted: slices of PTX-treated mice.

Read-outs that look alike come from different tables or passages of the source.

T1 sequence (P30989 whole entry): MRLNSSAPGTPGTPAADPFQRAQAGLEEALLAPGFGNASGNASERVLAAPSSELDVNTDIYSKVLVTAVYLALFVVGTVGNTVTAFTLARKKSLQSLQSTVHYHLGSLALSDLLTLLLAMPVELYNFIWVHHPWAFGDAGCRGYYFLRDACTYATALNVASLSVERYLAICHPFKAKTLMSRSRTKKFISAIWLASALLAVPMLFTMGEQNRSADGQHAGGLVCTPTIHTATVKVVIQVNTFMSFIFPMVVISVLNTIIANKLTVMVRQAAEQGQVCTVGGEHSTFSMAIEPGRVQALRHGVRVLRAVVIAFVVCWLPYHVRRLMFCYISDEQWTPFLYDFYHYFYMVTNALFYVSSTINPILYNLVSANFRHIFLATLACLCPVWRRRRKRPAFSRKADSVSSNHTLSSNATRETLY
T2 sequence (O95665 whole entry, species assumed): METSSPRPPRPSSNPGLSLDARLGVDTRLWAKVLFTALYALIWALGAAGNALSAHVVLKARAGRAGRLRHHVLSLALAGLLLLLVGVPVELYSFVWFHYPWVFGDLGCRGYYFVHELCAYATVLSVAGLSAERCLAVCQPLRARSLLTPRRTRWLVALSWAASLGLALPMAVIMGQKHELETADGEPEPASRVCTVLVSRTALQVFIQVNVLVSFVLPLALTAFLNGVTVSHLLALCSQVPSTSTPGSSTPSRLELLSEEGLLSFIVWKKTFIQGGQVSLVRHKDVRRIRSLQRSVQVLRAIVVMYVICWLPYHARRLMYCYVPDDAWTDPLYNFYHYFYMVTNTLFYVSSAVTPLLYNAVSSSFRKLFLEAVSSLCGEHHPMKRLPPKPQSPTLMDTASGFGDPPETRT

Regarding `C[C@@H](CN1CCC(Cc2ccccc2)CC1)[C@@H](O)c1ccc(O)cc1` [Ro25], the “Block of the increase in NMDA current amplitude caused by Arrb2 deficiency” value in the data set on NMDAR is “dose-dependently blocked”.

`COc1ccccc1C1CCN(c2nc(C3(C)CC3)nc3ccc(N(C)CCO)cc23)CC1` [SBI-810]: the Co was found to be 4702 ng/mL in data set [1] (Monkey, IV 5 mg/kg) and 314 ng/mL in data set [1] (Monkey, PO 20 mg/kg). In data set [1] (Monkey, IV 5 mg/kg), the T2/2 came to 6.54 h. The CI in data set [1] (Monkey, PO 20 mg/kg) was determined as 5.2 mL/min/kg. In data set [1] (compared with SBI-553), the Oral availability result is reported as “enhanced oral availability”. For the same molecule, in data set [1] (following i.v. and p.o. dosing), the Levels in plasma result was “good levels in plasma”. The AUC in data set [1] (plasma, iv, 5 mg/kg, Monkey, IV 5 mg/kg, read-out: AUCo-inf) was 4340 ng·h/mL; in data set [1] (plasma, iv, 5 mg/kg, Monkey, IV 5 mg/kg, read-out: AUCo-last), 4210 ng·h/mL; in data set [1] (plasma, po, 20 mg/kg, Monkey, PO 20 mg/kg, read-out: AUCo-inf), 2230 ng·h/mL; in data set [1] (plasma, po, 20 mg/kg, Monkey, PO 20 mg/kg, read-out: AUCo-last), 2120 ng·h/mL. Moreover, the clearance in data set [1] (plasma, Monkey, IV 5 mg/kg) was 19.2 mL/min/kg. Further, the MRT last amounted to 3.4 h in data set [1] (plasma, Monkey, IV 5 mg/kg) and 8 h in data set [1] (plasma, Monkey, PO 20 mg/kg). The Vd in data set [1] (plasma, Monkey, IV 5 mg/kg, read-out: Vdss) was determined as 5 L/kg. Besides, the half-life (in general, how long it takes for the measured level to halve) in data set [1] (plasma, Monkey, PO 20 mg/kg) was 240 min. Also, the figures for the “Translocation of β-arrestin-2 to intracellular compartments” value at NTSR1 [2] and on NTSR2 were “demonstrate translocation of β-arrestin-2” and “not observed”, respectively. For the same molecule, the “Pain reduction compared with SBI-553” value in data set [3] is “more effective in reducing pain than SBI-553”.

Take `COc1cccc(OC)c1-c1cc(C(=O)NC2(C(=O)O)C3CC4CC(C3)CC2C4)nn1-c1ccc(C(=O)N(C)CCCN(C)C)cc1C(C)C` (stereo not drawn) [SR142948A, reference compound]: the “Displacement of [3H]SBI-553 from NTSR1” value at NTSR1 [4] is reported as “not displaced”.

On to `CN1CC[C@]23c4c5ccc(O)c4O[C@H]2[C@@H](O)C=C[C@H]3[C@H]1C5` [morphine, reference compound], for which the “Excitatory synaptic transmission (sEPSCs) in lamina IIo neurons” value in the data set with lamina IIo neurons is on record as “did not produce significant inhibition”.
